# The source made the active and inactive calls.
# Assays:
# [1] = target: Calcium/calmodulin-dependent protein kinase type II subunit alpha (Homo sapiens, UniProt Q9UQM7); experiment: Navigating the Kinome. Panel member name: CAMK2A; format: functional
# Focal adhesion kinase 1 = Focal adhesion kinase 1 (Homo sapiens, UniProt Q05397); format: functional;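 further: measured as one member of a kinome panel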
# [2] = target: Tyrosine-protein kinase BTK (Homo sapiens, UniProt Q06187); format: functional
# Sequence of Tyrosine-protein kinase BTK (Q06187 whole entry): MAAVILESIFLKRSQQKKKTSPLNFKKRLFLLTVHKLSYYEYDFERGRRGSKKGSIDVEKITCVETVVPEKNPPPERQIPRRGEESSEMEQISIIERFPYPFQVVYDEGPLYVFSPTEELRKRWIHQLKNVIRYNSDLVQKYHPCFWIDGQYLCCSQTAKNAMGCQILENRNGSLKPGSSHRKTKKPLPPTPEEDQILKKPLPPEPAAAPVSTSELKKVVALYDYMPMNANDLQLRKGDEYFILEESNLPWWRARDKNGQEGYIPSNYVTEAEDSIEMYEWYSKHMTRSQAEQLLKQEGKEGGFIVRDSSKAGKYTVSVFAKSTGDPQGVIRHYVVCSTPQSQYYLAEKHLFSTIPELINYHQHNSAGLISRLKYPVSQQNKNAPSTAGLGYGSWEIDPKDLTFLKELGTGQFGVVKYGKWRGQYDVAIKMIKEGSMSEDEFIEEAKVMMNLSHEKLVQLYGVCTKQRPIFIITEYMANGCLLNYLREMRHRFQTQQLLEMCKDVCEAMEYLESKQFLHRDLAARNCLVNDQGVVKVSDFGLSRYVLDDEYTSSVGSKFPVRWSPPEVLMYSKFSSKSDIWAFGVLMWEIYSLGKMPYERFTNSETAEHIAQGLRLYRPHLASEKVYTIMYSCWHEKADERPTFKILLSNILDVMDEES
# [3] = target: T1, Serine/threonine-protein kinase TAO1 (Homo sapiens, UniProt Q7L7X3); format: functional
# T1 sequence (Q7L7X3 whole entry): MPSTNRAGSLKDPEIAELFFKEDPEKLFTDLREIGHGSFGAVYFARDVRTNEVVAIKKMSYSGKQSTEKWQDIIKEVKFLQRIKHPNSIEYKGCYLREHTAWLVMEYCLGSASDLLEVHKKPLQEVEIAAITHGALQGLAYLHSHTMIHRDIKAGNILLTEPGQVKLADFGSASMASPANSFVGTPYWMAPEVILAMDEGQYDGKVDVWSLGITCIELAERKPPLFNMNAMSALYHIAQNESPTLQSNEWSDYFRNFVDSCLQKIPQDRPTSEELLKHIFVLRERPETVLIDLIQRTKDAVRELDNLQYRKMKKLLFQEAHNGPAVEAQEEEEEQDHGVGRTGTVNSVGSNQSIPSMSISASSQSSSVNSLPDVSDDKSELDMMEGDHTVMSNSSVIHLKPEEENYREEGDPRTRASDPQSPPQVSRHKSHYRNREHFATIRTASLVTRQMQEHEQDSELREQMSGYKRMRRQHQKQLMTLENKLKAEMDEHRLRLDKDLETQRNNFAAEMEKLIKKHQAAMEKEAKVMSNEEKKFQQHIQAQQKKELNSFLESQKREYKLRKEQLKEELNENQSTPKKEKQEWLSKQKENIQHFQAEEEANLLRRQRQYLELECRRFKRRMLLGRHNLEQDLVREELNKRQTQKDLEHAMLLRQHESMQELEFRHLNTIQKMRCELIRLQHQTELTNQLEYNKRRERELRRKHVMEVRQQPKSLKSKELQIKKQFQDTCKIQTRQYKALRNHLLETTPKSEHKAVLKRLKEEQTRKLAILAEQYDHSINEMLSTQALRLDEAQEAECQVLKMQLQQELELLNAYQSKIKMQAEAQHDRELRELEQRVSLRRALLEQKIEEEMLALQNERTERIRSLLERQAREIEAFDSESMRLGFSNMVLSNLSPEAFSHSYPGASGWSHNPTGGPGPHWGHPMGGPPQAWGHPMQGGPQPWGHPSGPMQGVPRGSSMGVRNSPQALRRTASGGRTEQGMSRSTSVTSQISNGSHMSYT
# [4] = target: Tyrosine-protein kinase Lck (Homo sapiens, UniProt P06239); format: functional;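 further: lck was assayed as one member of a kinase panel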
# [5] = target: Tyrosine-protein kinase Fyn (Homo sapiens, UniProt P06241); format: functional
# [6] = target: ALK tyrosine kinase receptor (Homo sapiens, UniProt Q9UM73); format: functional;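 further: ALK tested as one member of a kinase panel screen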
# [7] = target: Mitogen-activated protein kinase 14 (Homo sapiens, UniProt Q16539); format: functional;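 further: part of a kinome-wide panel, MAPK14 entry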
# [8] = target: T2, Apoptotic protease-activating factor 1 (Homo sapiens, UniProt O14727); experiment: SAR analysis of small molecule inhibitors of Apaf-1 in a Fluorescent assay.; format: functional; conditions: read-out: IC50_Mean
# T2 sequence (O14727 whole entry): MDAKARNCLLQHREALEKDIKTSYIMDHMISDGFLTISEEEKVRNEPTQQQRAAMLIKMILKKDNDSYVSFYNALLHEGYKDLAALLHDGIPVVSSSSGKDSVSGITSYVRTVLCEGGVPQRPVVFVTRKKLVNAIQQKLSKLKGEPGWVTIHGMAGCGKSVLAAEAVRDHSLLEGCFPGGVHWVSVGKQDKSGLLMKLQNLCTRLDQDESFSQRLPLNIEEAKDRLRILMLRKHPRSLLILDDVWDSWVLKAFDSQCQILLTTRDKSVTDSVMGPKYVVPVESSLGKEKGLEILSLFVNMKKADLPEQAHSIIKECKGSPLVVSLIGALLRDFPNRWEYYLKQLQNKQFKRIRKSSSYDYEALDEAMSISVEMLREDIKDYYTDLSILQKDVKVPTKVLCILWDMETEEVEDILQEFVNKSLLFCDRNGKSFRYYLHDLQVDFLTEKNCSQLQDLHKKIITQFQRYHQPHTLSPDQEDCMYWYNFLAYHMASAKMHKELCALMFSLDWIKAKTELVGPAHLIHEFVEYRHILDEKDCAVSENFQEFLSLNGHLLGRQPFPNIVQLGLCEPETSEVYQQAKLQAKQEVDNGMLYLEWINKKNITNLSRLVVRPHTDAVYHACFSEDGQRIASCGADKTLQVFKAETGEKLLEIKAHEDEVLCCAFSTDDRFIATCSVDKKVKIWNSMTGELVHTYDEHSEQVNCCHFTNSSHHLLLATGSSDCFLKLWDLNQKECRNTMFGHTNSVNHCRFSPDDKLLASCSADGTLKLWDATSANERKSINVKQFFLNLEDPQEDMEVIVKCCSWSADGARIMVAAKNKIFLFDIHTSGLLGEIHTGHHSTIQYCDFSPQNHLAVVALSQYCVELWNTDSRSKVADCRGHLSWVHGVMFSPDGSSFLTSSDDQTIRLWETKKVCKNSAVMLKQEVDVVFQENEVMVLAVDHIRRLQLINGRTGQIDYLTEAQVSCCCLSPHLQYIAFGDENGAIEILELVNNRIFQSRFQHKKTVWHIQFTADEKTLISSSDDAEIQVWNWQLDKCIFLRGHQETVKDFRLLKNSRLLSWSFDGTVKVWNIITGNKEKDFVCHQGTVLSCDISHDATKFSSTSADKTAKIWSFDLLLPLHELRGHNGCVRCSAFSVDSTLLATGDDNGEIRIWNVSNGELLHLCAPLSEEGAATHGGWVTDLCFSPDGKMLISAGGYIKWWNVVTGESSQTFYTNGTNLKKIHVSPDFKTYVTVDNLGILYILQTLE
# [9] = target: DNA dC->dU-editing enzyme APOBEC-3A (Homo sapiens, UniProt P31941); experiment: SAR analysis of small molecule inhibitors of APOBEC3A DNA Deaminase via a fluorescence-based single-stranded DNA deaminase assay.; format: functional; conditions: read-out: IC50_Mean
# Sequence of DNA dC->dU-editing enzyme APOBEC-3A (P31941 whole entry): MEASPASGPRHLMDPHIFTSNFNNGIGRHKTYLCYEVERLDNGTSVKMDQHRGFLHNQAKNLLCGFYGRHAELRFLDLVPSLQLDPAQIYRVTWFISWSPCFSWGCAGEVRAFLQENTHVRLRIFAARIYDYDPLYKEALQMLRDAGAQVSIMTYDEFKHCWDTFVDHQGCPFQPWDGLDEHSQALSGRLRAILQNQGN
# [10] = target: DNA dC->dU-editing enzyme APOBEC-3G (Homo sapiens, UniProt Q9HC16); experiment: inhibition of APOBEC3G ssDNA deamination – biochemical, fluorescence, single-stranded DNA substrate, SAR follow-up (AID 602136); format: functional; conditions: read-out: IC50_Mean
# Sequence of DNA dC->dU-editing enzyme APOBEC-3G (Q9HC16 whole entry): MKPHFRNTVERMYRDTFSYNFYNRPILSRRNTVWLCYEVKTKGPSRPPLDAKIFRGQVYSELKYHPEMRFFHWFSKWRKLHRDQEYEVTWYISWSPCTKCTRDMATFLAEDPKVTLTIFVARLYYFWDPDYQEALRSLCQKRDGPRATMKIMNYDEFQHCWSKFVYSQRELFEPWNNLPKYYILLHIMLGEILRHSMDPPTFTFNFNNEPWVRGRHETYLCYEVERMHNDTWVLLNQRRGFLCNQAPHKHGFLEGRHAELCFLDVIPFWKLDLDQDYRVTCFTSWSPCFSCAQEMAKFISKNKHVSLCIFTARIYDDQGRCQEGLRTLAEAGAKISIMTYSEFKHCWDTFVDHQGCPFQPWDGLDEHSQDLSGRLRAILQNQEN
# HEK293 [11] = experiment: optical interference in Abeta FP readout, dose response, artefact control for IDE activator project, biochemical, fluorescence polarization (AID 588442); format: functional, cell-based; conditions: Homo sapiens
# HEK293 [12] = experiment: membrane integrity loss in HEK cells – cell-based, fluorescence, cytotoxicity control for IDE activator project, dose response (AID 588440); format: functional; conditions: Homo sapiens;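 further: cytotoxicity by LDH release measuring loss of membrane integrity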
# Insulin-degrading enzyme [13] = target: T3, Insulin-degrading enzyme (Homo sapiens, UniProt P14735); experiment: cellular IDE activation of Abeta substrate cleavage – fluorescence polarization, HEK cells, dose response (AID 588439); format: functional, cell-based
# T3 sequence (P14735 whole entry): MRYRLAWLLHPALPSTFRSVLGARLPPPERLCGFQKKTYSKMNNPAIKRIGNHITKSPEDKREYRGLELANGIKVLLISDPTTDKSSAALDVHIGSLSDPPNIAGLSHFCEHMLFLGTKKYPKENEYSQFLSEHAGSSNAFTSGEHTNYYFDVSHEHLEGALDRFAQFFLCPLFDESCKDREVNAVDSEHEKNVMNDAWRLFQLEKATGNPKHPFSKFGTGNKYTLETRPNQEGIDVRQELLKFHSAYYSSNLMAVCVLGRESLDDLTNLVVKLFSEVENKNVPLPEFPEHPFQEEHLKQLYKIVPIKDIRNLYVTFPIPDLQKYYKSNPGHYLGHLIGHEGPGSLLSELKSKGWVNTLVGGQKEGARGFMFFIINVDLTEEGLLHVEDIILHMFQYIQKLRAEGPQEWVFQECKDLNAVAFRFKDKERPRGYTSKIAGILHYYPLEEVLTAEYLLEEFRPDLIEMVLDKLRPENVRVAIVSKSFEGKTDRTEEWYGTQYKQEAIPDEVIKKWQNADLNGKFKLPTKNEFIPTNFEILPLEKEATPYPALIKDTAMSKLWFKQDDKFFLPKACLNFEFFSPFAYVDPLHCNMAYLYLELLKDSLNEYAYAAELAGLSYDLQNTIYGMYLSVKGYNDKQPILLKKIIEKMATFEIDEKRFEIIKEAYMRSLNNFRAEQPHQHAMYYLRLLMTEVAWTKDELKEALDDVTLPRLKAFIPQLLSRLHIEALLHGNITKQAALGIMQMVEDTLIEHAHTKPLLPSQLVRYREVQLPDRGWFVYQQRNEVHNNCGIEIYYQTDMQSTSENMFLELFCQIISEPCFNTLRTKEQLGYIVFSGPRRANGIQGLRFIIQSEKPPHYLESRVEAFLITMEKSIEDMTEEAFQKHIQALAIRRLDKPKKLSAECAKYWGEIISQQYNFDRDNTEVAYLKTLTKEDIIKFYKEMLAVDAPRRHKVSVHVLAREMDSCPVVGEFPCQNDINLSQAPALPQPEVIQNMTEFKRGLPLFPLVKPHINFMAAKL
# Insulin-degrading enzyme [14] = target: T3, Insulin-degrading enzyme; experiment: recombinant IDE activation, cell-free – biochemical, fluorescence polarization, counter-screen for IDE activator project, dose response (AID 588681)
# Beta-lactamase [15] = target: Beta-lactamase (Pseudomonas aeruginosa, UniProt Q79MP6);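 further: biochemical dose-response test of metallo-beta-lactamase enzyme inhibition, read out by epi-absorbance; purified recombinant IMP-1 metallo-beta-lactamase with nitrocefin as substrate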
# [16] = mRNA 3' processing disruption, beta-gal signal increase – luminescence, S. cerevisiae SKY197-pL101, dose response (AID 2525); format: functional, cell-based
# Beta-lactamase [17] = target: Beta-lactamase (Salmonella choleraesuis (strain SC-B67), UniProt Q5J463)
# Prothrombin = Prothrombin (Bos taurus, UniProt P00735); experiment: thrombin protease inhibitors – biochemical, fluorescence polarization, uHTS hits, dose response (AID 602369); format: functional
# [18] = target: 26S proteasome non-ATPase regulatory subunit 14 (Homo sapiens, UniProt O00487); experiment: inhibition of proteasome subunit RPN11 – biochemical, fluorescence polarization, uHTS hits, confirmation (AID 602368); format: functional
# [19] = Luminescence Cell-Based Dose Confirmation HTS to Identify Inhibitors of Polyadenylation.; format: functional
# [20] = target: 72 kDa type IV collagenase (Homo sapiens, UniProt P08253); experiment: Dose Response validation of uHTS RPN11 inhibitor hits using a MMP-2 Fluorescence assay.; format: functional
# Sequence of 72 kDa type IV collagenase (P08253 whole entry): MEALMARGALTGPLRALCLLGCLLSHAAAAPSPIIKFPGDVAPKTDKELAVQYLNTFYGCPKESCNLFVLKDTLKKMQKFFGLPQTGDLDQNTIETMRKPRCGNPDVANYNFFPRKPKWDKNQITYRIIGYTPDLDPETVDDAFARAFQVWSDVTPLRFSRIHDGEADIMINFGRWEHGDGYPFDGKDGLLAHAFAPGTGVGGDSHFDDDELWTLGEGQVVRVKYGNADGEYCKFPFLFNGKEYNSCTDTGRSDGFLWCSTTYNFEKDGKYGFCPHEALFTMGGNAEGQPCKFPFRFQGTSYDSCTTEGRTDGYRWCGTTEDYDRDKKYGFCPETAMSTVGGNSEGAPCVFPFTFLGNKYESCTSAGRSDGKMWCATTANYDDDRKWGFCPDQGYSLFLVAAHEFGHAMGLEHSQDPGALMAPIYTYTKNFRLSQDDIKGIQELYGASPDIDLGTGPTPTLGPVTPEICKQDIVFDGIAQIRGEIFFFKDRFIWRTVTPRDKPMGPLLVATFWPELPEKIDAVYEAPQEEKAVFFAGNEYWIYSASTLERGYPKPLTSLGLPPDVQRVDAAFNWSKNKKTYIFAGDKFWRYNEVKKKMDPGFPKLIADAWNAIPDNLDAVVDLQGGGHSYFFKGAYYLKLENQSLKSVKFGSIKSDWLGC
# [21] = target: Multidrug resistance protein CDR1 (Candida albicans, UniProt P43071); experiment: inhibition of Nile Red efflux via Candida CDR1 – S. cerevisiae AD1-8u, singleplex, Cherry Pick1 hits, dose response (AID 588606); format: functional
# [22] = target: Voltage-dependent T-type calcium channel subunit alpha-1H (Homo sapiens, UniProt O95180); format: functional;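 further: channel activity triggered by adding a high calcium stimulation buffer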
# [23] = target: Protein disulfide-isomerase (Homo sapiens, UniProt P07237); experiment: inhibition of PDI-driven insulin aggregation – biochemical, turbidity, absorbance, cherry-picked samples, dose response (AID 602350); format: functional
# Sequence of Protein disulfide-isomerase (P07237 whole entry): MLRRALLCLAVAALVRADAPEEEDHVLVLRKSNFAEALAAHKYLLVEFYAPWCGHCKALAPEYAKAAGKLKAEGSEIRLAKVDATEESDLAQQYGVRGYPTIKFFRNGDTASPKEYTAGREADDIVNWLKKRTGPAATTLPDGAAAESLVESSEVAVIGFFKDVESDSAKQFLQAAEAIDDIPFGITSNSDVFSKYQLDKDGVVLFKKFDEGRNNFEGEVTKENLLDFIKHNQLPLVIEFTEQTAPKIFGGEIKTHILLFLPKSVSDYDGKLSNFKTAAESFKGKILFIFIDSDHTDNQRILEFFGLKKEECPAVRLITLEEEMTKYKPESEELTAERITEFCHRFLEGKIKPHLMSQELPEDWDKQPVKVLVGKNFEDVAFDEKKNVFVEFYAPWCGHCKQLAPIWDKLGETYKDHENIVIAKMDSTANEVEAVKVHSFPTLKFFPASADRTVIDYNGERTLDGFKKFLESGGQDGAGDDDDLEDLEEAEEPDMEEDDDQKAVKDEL
# [24] = Mcl1-dependent cancer cell viability – HMC-1-8 cells, luminescence, dry powder, selectivity assay for A1 inhibitor project, dose response (AID 504415); format: functional, cell-based; conditions: Homo sapiens
# Sequence of Focal adhesion kinase 1 (Q05397 whole entry): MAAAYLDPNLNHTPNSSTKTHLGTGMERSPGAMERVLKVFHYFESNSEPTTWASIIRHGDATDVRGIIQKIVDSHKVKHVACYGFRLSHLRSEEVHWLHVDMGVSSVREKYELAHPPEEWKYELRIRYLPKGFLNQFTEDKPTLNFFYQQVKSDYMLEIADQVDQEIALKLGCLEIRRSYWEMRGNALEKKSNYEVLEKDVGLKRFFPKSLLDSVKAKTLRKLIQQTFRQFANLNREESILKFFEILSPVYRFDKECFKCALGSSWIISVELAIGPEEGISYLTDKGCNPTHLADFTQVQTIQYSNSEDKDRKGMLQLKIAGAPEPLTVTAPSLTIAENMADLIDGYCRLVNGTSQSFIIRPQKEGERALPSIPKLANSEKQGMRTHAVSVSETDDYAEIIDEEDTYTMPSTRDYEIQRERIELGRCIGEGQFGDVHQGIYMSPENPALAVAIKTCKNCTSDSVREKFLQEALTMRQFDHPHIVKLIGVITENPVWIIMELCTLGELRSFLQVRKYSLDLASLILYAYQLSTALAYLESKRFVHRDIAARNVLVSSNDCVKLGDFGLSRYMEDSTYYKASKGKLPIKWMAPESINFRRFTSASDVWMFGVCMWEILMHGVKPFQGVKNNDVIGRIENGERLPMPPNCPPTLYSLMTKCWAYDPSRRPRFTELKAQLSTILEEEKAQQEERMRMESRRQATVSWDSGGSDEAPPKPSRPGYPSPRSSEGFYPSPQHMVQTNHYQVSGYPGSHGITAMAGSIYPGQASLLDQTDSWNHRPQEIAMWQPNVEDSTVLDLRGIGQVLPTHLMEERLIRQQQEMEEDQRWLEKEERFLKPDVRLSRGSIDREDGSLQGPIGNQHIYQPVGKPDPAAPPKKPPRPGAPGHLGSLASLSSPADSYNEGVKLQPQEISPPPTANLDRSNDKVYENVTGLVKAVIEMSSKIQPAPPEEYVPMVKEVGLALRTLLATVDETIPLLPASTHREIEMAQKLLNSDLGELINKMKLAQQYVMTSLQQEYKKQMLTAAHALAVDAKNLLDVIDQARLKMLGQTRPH
# Sequence of Calcium/calmodulin-dependent protein kinase type II subunit alpha (Q9UQM7 whole entry): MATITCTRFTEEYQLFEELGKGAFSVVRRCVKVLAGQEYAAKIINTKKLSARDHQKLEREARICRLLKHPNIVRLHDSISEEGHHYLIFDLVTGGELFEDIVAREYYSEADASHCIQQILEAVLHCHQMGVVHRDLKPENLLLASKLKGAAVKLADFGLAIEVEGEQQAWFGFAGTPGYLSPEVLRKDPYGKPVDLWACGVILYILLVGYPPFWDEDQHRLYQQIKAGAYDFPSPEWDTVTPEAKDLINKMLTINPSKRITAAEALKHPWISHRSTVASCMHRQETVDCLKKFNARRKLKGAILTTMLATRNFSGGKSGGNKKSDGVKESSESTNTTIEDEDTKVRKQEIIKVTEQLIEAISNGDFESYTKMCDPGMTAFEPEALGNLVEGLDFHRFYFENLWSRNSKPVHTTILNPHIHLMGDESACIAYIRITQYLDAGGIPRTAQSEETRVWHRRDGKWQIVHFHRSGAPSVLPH
structure (smiles),measurement,setting,value
CC(C)CC(CO)NC(=O)c1cccc(-n2nc(C(C)(C)C)cc2NC(=O)Nc2cccc3ccccc23)c1 (stereo unspecified),Ki,[1],> 7.94 µM (inactive)
same,Ki,Focal adhesion kinase 1,> 6.31 µM (inactive)
same,Ki,[2],> 6.31 µM (inactive)
same,Ki,[3],> 6.31 µM (inactive)
same,Ki,[4],> 6.31 µM (inactive)
same,Ki,[5],> 6.31 µM (inactive)
same,Ki,[6],> 6.31 µM (inactive)
same,Ki,[7],0.631 µM (active)
Cn1cc(C(CC(=O)c2ccc(C3CCCCC3)cc2)C(=O)O)c2ccccc21 (stereo unspecified),IC50,[8],69.6 µM (active)
CC(=O)c1c(C)[nH]c(C(=O)CN(C)CC(=O)Nc2ccc(F)c(F)c2F)c1C,IC50,[9],> 99 µM (inactive)
same,IC50,[10],> 99 µM (inactive)
O=C(O)c1ccccc1Nc1ccc([N+](=O)[O-])c2nonc12,EC50,HEK293 [11],> 54.7 µM (inactive)
same,IC50,HEK293 [12],> 89.2 µM (inactive)
same,EC50,Insulin-degrading enzyme [13],> 54.7 µM (inactive)
same,EC50,Insulin-degrading enzyme [14],> 54.7 µM (inactive)
COc1cc(/C=C2/SC(=S)N(Cc3ccccc3)C2=O)cc(OC)c1O,IC50,Beta-lactamase [15],> 59.6 µM (inactive)
same,EC50,[16],31.9 µM (active)
same,IC50,Beta-lactamase [17],> 59.6 µM (inactive)
same,IC50,Prothrombin,2.9 µM (active)
same,IC50,[18],2.36 µM (active)
same,EC50,[19],27.8 µM (inconclusive)
same,IC50,[20],> 100 µM (inactive)
O=C(CSc1nnc(Cc2cccs2)n1Cc1ccco1)Nc1ccc(Br)cc1,EC50,[21],0.009 µM (active)
same,EC50,[22],3.12 µM (active)
CCOC(=O)c1c(CNCCN(CC)CC)n(C)c2cc(Br)c(OC)cc12,AC50,[23],0.376 µM (active)
O=[N+]([O-])c1cnc2ccccc2c1Sc1ccccc1,AC50,[24],39.2 µM (active)

# From ChEMBL document CHEMBL1201862, “PubChem BioAssay data set” (2004)
